Experimental data from patent US9828368B2 (MERCK SHARP & DOHME CORP., priority 2013, dated 2017).
pIC50: −log10 of the molar value.

How the values were obtained:
[1] = molecular target: human orexin-2 receptor (Homo sapiens (Human), UniProt O43614); assay: FLIPR Ca2+ flux assay, hOX2R; type: cell-based; settings: CHO cells expressing human orexin-2 receptor; agonist 70 pM Ala-6,12 orexin-A
Method: In a typical experiment the OX1 and OX2 receptor antagonistic activity of the compounds of the present invention was determined in accordance with the following experimental method. For intracellular calcium measurements, Chinese hamster ovary (CHO) cells expressing the rat orexin-1 receptor or the human orexin-2 receptor, are grown in Iscove's modified DMEM containing 2 mM L-glutamine, […], 1% hypoxanthine-thymidine supplement, 100 U/ml penicillin, 100 μg/ml streptomycin and 10% heat-inactivated fetal calf serum (FCS). The cells are seeded at 20,000 cells/well into Becton-Dickinson black 384-well clear bottom sterile plates coated with poly-D-lysine. All reagents were from GIBCO-Invitrogen Corp. The seeded plates are incubated overnight at 37° C. and 5% CO2. Ala-6,12 human orexin-A as the agonist is prepared as a 1 mM stock solution in 1% bovine serum albumin (BSA) and diluted in assay buffer (HBSS containing 20 mM HEPES, 0.1% BSA and 2.5 mM probenecid, pH7.4) for use in the assay at a final concentration of 70 pM. Test compounds are prepared as 10 mM stock solution in DMSO, then diluted in 384-well plates, first in DMSO, then assay buffer. On the day of the assay, cells are washed 3 times with 100 μl assay buffer and then incubated for 60 min (37° C., 5% CO2) in 60 μl assay buffer containing 1 μM Fluo-4AM ester, 0.02% pluronic acid, and 1% BSA. The dye loading solution is then aspirated and cells are washed 3 times with 100 μl assay buffer. 30 μl of that same buffer is left in each well. Within the Fluorescent Imaging Plate Reader (FLIPR, Molecular Devices), test compounds are added to the plate in a volume of 25 μl, incubated for 5 min and finally 25 μl of agonist is added. Fluorescence is measured for each well at 1 second intervals for 5 minutes and the height of each fluorescence peak is compared to the height of the fluorescence peak induced by 70 pM Ala-6,12 orexin-A with buffer in place of antagonist. […] The intrinsic orexin receptor antagonist activity of a compound which may be used in the present invention may be determined by these assays.

[2] = molecular target: hOX1R (Homo sapiens, UniProt O43613); assay: FLIPR Ca2+ flux assay, hOX1R; type: cell-based; settings: CHO cells; agonist 70 pM Ala-6,12 orexin-A; rat orexin-1 receptor; read-out: hOX1R FLIPR IC50

human orexin-2 receptor, sequence (O43614 whole entry): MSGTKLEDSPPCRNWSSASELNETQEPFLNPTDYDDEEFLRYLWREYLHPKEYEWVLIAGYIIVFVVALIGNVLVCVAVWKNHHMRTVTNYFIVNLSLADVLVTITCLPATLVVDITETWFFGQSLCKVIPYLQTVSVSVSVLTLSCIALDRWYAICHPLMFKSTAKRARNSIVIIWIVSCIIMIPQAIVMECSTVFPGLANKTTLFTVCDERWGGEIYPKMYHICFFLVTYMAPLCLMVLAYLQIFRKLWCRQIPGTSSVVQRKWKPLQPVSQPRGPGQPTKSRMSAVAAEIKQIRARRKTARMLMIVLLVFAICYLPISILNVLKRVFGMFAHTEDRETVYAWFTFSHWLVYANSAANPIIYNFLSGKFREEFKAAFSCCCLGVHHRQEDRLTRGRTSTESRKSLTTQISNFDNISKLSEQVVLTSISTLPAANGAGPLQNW

Row | Compound | pIC50 [1] | pIC50 [2]
1 | C[C@@H]1CC[C@@H](c2nc(C(C)(C)O)c(C(F)(F)F)o2)CN1C(=O)c1ccccc1-n1nccn1 [Example 54, (2-(2H-1,2,3-Triazol-2-yl)phenyl)((2R,5R)-5-(4-(2-hydroxypropan-2-yl)-5-(trifluoromethyl)oxazol-2-yl)-2-methylpiperidin-1-yl)methanone] | 7.38 | 6.62
2 | Cc1nc([C@@H]2CC[C@@H](C)N(C(=O)c3ccccc3-n3nccn3)C2)oc1C(C)(C)O [Example 55, (2-(2H-1,2,3-Triazol-2-yl)phenyl)((2R,5R)-5-(5-(2-hydroxypropan-2-yl)-4-methyloxazol-2-yl)-2-methylpiperidin-1-yl)methanone] | 7.20 | 7.05
3 | COC(=O)c1nc([C@@H]2CC[C@@H](C)N(C(=O)c3ccccc3-n3nccn3)C2)oc1-c1ccccc1 [Example 56, Methyl 2-((3R,6R)-1-(2-(2H-1,2,3-triazol-2-yl)benzoyl)-6-methylpiperidin-3-yl)-5-phenyloxazole-4-carboxylate] | 5.80 | 6.44
4 | C[C@@H]1CC[C@@H](c2nc(CO)c(-c3ccccc3)o2)CN1C(=O)c1ccccc1-n1nccn1 [Example 57, (2-(2H-1,2,3-Triazol-2-yl)phenyl)((2R,5R)-5-(4-(hydroxymethyl)-5-phenyloxazol-2-yl)-2-methylpiperidin-1-yl)methanone] | 5.93 | 6.43
5 | C[C@@H]1CC[C@@H](c2nc(CF)c(-c3ccccc3)o2)CN1C(=O)c1ccccc1-n1nccn1 [Example 58, (2-(2H-1,2,3-Triazol-2-yl)phenyl)((2R,5R)-5-(4-(fluoromethyl)-5-phenyloxazol-2-yl)-2-methylpiperidin-1-yl)methanone] | 6.80 | 6.66
6 | COCc1nc([C@@H]2CC[C@@H](C)N(C(=O)c3ccccc3-n3nccn3)C2)oc1-c1ccccc1 [Example 59, (2-(2H-1,2,3-Triazol-2-yl)phenyl)((2R,5R)-5-(4-(methoxymethyl)-5-phenyloxazol-2-yl)-2-methylpiperidin-1-yl)methanone] | 6.46 | 7.00
7 | C[C@@H]1CC[C@@H](c2nc(C(C)(C)O)c(-c3ccccc3)o2)CN1C(=O)c1ccccc1-n1nccn1 [Example 60, (2-(2H-1,2,3-Triazol-2-yl)phenyl)((2R,5R)-5-(4-(2-hydroxypropan-2-yl)-5-phenyloxazol-2-yl)-2-methylpiperidin-1-yl)methanone] | 7.08 | 7.12
8 | C[C@@H]1CC[C@@H](c2nc(C(N)=O)c(-c3ccccc3)o2)CN1C(=O)c1ccccc1-n1nccn1 [Example 61, 2-((3R,6R)-1-(2-(2H-1,2,3-Triazol-2-yl)benzoyl)-6-methylpiperidin-3-yl)-5-phenyloxazole-4-carboxamide] | 6.71 | 7.19
9 | C[C@@H]1CC[C@@H](c2nc(CC(C)(C)O)c(-c3ccccc3)o2)CN1C(=O)c1ccccc1-n1nccn1 [Example 68, (2-(2H-1,2,3-Triazol-2-yl)phenyl)((2R,5R)-5-(4-(2-hydroxy-2-methylpropyl)-5-phenyloxazol-2-yl)-2-methylpiperidin-1-yl)methanone] | 7.21 | 7.02
10 | COC(C)(C)Cc1nc([C@@H]2CC[C@@H](C)N(C(=O)c3ccccc3-n3nccn3)C2)oc1-c1ccccc1 [Example 69, (2-(2H-1,2,3-Triazol-2-yl)phenyl)((2R,5R)-5-(4-(2-methoxy-2-methylpropyl)-5-phenyl-oxazol-2-yl)-2-methylpiperidin-1-yl)methanone] | 6.54 | 6.41
11 | C[C@@H]1CC[C@@H](c2nc(CCO)c(-c3ccccc3)o2)CN1C(=O)c1ccccc1-n1nccn1 [Example 70, (2-(2H-1,2,3-Triazol-2-yl)phenyl)((2R,5R)-5-(4-(2-hydroxyethyl)-5-phenyloxazol-2-yl)-2-methylpiperidin-1-yl)methanone] | 7.23 | 7.42
